Test results reported in article PMC2171038 (Traffic (Copenhagen, Denmark), 2007).

Target: T1, protoporphyrinogen oxidase (Saccharomyces cerevisiae, UniProt P40012)
T1 sequence (P40012 1-539): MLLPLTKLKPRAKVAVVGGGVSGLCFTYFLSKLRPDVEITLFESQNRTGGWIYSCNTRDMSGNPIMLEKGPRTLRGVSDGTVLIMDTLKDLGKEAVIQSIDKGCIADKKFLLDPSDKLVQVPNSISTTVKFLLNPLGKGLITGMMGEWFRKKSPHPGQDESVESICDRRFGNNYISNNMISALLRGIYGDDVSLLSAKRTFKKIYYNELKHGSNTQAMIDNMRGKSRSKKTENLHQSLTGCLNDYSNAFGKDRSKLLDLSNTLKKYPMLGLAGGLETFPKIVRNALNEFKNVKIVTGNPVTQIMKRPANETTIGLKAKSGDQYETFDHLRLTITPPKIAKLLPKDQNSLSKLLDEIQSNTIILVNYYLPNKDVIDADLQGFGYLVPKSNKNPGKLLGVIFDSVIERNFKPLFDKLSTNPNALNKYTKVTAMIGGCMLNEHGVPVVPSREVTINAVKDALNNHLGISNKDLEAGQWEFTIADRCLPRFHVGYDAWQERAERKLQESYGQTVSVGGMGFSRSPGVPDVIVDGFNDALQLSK
Assay: fluorimetric protoporphyrinogen oxidase activity assay
Type: biochemical

IC50: ~100 nM
SMILES: CC(=O)N(O)CCCCCNC(=O)CCC(=O)N(O)CCCCCNC(=O)CCC(=O)N(O)CCCCCNC(=O)c1cc(Oc2ccc(C(F)(F)F)cc2Cl)ccc1[N+](=O)[O-] [compound 1, DFOB-AF]
